pEC50: −log10 of the molar value. Where a name gives a salt, the structure may show the parent alone.

What all share (type): cell-based
The test system of experiment [1] is wild-type HeLa cell line. As to the kind of experiment: Wild-type versus KRAS HeLa cell viability: wild-type KRAS transgene. Conditions: Homo sapiens; HeLa cells expressing wild-type KRAS, 72 hours; read-out: WT GI50. As to the method:
(§1) Assay to Measure the Effects of Compounds of the Invention on Wild-Type Versus KRAS HeLa Cell Viability
(§2) Identifying synthetic lethal interactions between targeted small molecule therapies and characterised oncogenic mutations is a goal of modern oncology drug discovery efforts. To this end, PLK1-PBD inhibitors were tested on HeLa cells engineered to inducibly express wild-type or oncogenic KrasG12V transgenes using the FLP-in/T-Rex system (Invitrogen). Cells were plated, and then treated with or without Doxycycline to induce transgene expression, and then treated with serially-diluted PBD inhibitors. After 72 hours of incubation, cell viability was assessed using the Cell Titre Blue reagent (Promega) and a BMG Pherastar plate reader. The effect of PBD inhibition on cell viability with either wild-type or oncogenic G12V KRAS was assessed using the graphing/curve-fitting packages in GraphPad Prism.

The subject of experiment [2] is KRAS G12V HeLa cell line. Nature of the experiment: Wild-type versus KRAS HeLa cell viability: oncogenic KrasG12V transgene. The following applies: Homo sapiens; HeLa cells expressing KRAS G12V, 72 hours. As for the experimental part: as §1, §2
The subject of experiment [3] is HCT116 cells. Nature of the experiment: Effects on HCT116 colorectal cancer cell viability (cell titre blue, 72 hours). Conditions: Homo sapiens, HCT-116, HCT116 cell line. As to the method:
Assay to Measure the Effects of Compounds of the Invention on HCT116 Colorectal Cancer Cell Viability
The following protocol was used to measure the effects of compounds of the invention on HCT116 cell viability.
1. HCT116 cells were grown in RPM11640 media supplemented with Glutamax and 10% FBS in a 37° C./5% CO2 incubator.
2. Growing culture of HCT116 cells were trypsinised, counted and diluted to give 10,000 cells/mL in an appropriate volume, allowing at least 6 mL of cells per plate.
3. 200 μL of PBS were added to all the outer wells of a flat-bottomed (8×12) 96-well TC plate. 100 μL of media were added only to wells in column 11 of the plates (these wells provided a blank for the cell titre blue assay). Two compounds were assayed on each plate.
4. 100 ul of 10,000 cells/mL HCT116s were plated in rows B-G of each plate.
5. The cells were incubated (37° C. 5% CO2) for 24 hours before treating with compounds.
6. An 8 mM compound stock in DMSO was prepared for all compounds to be tested. 2.5 μL of the compound stock was added to 1000 μL growth medium in a 96-well deep well block and serial dilutions were prepared across the plate by transferring 500 μL into wells containing 500 μL growth medium+0.25% DMSO to give eight concentrations of compound (this ensured a constant amount of DMSO at all concentrations of compound). When making up growth medium+DMSO, an amount of 5 ml was allowed per compound to be diluted.
7. 3 rows of cells were treated with 100 μL/well from each row on the dilution plate so that each cell plate is treated with a single compound. This gave a final volume in all wells of 200 μL and a titration of compound from a final concentration of 10 uM down to 78 nM.
8. The cells were incubated (37° C. 5% CO2) for 72 hours.
9. 5 ul cell titre blue reagent (Promega) were added to all wells except the edge wells (which contain PBS only) and incubated (37° C. 5% CO2) for 2.5-3 hours.
10. Fluorescence was measured on a suitable plate reader using a 530-570 nm filter set for excitation and a 580-620 nm filter set for fluorescence emission.
11. Data were analysed using an appropriate graphing package (such as GraphPad Prism). Data were expressed as the concentration of compound causing a 50% inhibition of cell viability or GI50.

Experiment [4] concerns HeLa cells. Nature of the experiment: Arresting cells in mitosis (Mitotic Index, phosphorylated Histone H3 immunofluorescence). The following applies: HeLa cell line, 24 hours; for pEC50: Homo sapiens, Mitotic Index, read-out: EC50. As to the method:
Assay to Measure the Effects of Compounds of the Invention on Arresting Cells in Mitosis
Inhibiting the ability of PLK1 to bind to its phosphopeptide binding partners through the PBD causes cells to arrest in mitosis. Experimentally, this is measured by assessing the number of cells which are in mitosis at a certain time after treatment with a PLK1-PBD inhibitor by immunofluorescent detection of phosphorylated Histone H3 (pH3), a marker which is only present in mitotic cells. PLK1-PBD inhibitors are expected to cause a dose-dependent increase in pH3-positive cells, which is reported as Mitotic Index (MI)—the percentage of cells which, at a given time, are positive for this mitotic mark. The following protocol has been used to measure MI: • 1. Plate HeLa cells at 10,000/well in 100 μL/well in clear flat-bottom 96-well plates and incubate overnight. • 2. Immediately prior to treatment, dilute compounds in medium in a 96-well round-bottom plate. Make up all compounds at 5 times final desired concentration on cells, and serially dilute 1:2 across the plate ensuring that there is 100 μL of each concentration (start with 200 μl of the top concentration on the left of the plate). […] Treat cells by adding 25 μL from the compound dilution plate to triplicate wells. • 4. Incubate cells with compound for 24 hours. • 5. After 24 hours, fixation and staining is carried out as follows: • 6. Dilute 37% formaldehyde in PBS to give a 12.95% solution by adding 3.5 mL formaldehyde to 6.5 mL of PBS. • 7. Add 50 μL of formaldehyde fixation solution directly to each well of cells (which already contain 125 μL medium). • 8. Incubate at room temp for 10 minutes. • 9. Remove fixative and add 100 μL/well PBS+0.1% Triton X-100 for 10 minutes. • 10. Aspirate and add 100 μL/well PBS+1% BSA. • 11. Aspirate and add 50 μL/well of primary antibody (anti-PH3 [1:2000]/anti-MPM2 [1:1000]) diluted in PBS+1% BSA. Incubate for 1 hour. • 12. Wash×2 with 100 μL/well PBS+1% BSA. • 13. Add 50 μL/well of secondary antibody plus Hoechst stain (anti-rabbit Alexafluor 488 [1:500]; anti-mouse Alexafluor 546 [1:500]+Hoechst 33342 [1:2500 final concentration=4 μg/mL])diluted in PBS+1% BSA. Incubate for 1 hour. • 14. Wash twice with 100 μL/well PBS+1% BSA. • 15. Aspirate and add 100 μL/well PBS. Plates can be stored at 4° C. in PBS for several weeks before scanning on the Cellomics Arrayscan. […] Scan on Cellomics using Target Activation Bioapplication. • 17. MI data emerging from the Cellomic Bioapplication can be used to plot MI versus compound concentration, and subsequently used to generate an EC50 value for each compound using an appropriate graphing/curve-fitting package such as GraphPad Prism.

The term GI50 denotes the concentration at which growth is held to half of that of the control. On to `CN(C)CCNC(=O)c1ccc(-c2ccc(-c3ccc(Br)cc3)n2-c2ccccc2C(F)(F)F)cn1` [Example 28], for which the 50% growth inhibitory concentration (GI50) stood at 0.06 µM in experiment [1] and 0.03 µM in experiment [2].
As to `CN(C)CCCNC(=O)c1ccc(-c2ccc(-c3ccc(Cl)cc3)n2-c2ccccc2C(F)(F)F)nc1` [Example 62, hydrochloride], the GI50 is 0.12 µM in experiment [3], 0.02 µM in experiment [1] and 0.008 µM in experiment [2].
As for `CN(C)CCNC(=O)c1cccc(-c2ccc(-c3ccc(Br)cc3)n2-c2ccccc2N)c1` [Example 56, hydrochloride], the GI50 in experiment [3] was 2.71 µM; in experiment [1], 2.19 µM; in experiment [2] it was 2.52 µM.
`CN(C)CCNC(=O)c1ccc(-c2ccc(-c3ccc(F)cc3)n2-c2ccccc2C(F)(F)F)cc1` [Example 59, hydrochloride]: the GI50 in experiment [3] came to 0.05 µM; in experiment [1], 0.01 µM; in experiment [2], 0.008 µM.
Regarding `CN(C)CCNC(=O)c1ccc(-n2ncc(-c3ccc(Cl)cc3)c2-c2ccccc2C(F)(F)F)cc1` [Example 82, 4-[4-(4-Chlorophenyl)-5-[2-(trifluoromethyl)phenyl]pyrazol-1-yl]-N-[2-(dimethylamino)ethyl]-benzamide Hydrochloride], the results for the GI50 in experiment [3], in experiment [1] and in experiment [2] were 0.04 µM, 0.03 µM and 0.01 µM, respectively.
For the compound `O=C(NCCN1CCNCC1)c1ccc(-c2ccc(-c3ccc(Cl)cc3)n2-c2ccccc2C(F)(F)F)cc1` [Example 87, hydrochloride], the GI50 is 0.06 µM in experiment [3], 0.02 µM in experiment [1] and 0.008 µM in experiment [2].
Usually pEC50 stands for the EC50 on a negative log10 scale, so that one unit is a factor of ten. In the case of `CC(C)c1ccc(-c2ccc(-c3cccc(C(=O)NCCN(C)C)c3)n2-c2ccccc2C(F)(F)F)cc1` [Example 22, hydrochloride], halving of growth in experiment [3] (GI50) required 2.75 µM. Further, in experiment [4], the “% mitotic cells” value came to 5% and the pEC50 is less than 5.00.
Regarding `CN1CC[C@@H](NC(=O)c2cccc(-c3ccc(-c4ccc(Br)cc4)n3-c3ccccc3C(F)(F)F)c2)C1` [Example 13, hydrochloride], the GI50 in experiment [3] was 0.66 µM. Moreover, in experiment [4], the “% mitotic cells” value is 71% and the pEC50 is 6.12.
On to `CN(C)CCCNC(=O)c1ccc(-c2ccc(-c3ccc(Br)cc3)n2-c2ccccc2C(F)(F)F)cc1` [Example 34], for which the 50% growth inhibitory concentration (GI50) in experiment [3] came out at 0.08 µM; in experiment [1], 0.13 µM; in experiment [2] it was 0.09 µM.
Turning to `CN(C)CCN(C)C(=O)c1cccc(-c2ccc(-c3ccc(Br)cc3)n2-c2ccccc2C(F)(F)F)c1` [Example 12, hydrochloride], growth in experiment [3] was halved (GI50) at 0.29 µM. For the same compound, in experiment [4], the “% mitotic cells” value came out at 62% and the pEC50 was 6.10.
Regarding `CN(C)CCNC(=O)c1cccc(-c2ccc(-c3ccc(Br)cc3)n2-c2ccccc2O)c1` [Example 25, hydrochloride], the GI50 is 3.89 µM in experiment [3], 2.51 µM in experiment [1] and 3.58 µM in experiment [2].
In the case of `CN1CCC(NC(=O)c2cccc(-c3ccc(-c4ccc(Br)cc4)n3-c3ccccc3C(F)(F)F)c2)CC1` [Example 11, hydrochloride], halving of growth in experiment [3] (GI50) required 0.36 µM. Moreover, in experiment [4], the “% mitotic cells” value is on record as 54% and the pEC50 is 6.10.
Turning to `CN(C)CCNC(=O)c1ccc(-c2ccc(-c3ccc(Br)cc3)n2-c2ccccc2C(F)(F)F)c(Cl)c1` [Example 36, hydrochloride], the 50% growth inhibitory concentration (GI50) is 0.03 µM in experiment [3], 0.12 µM in experiment [1] and 0.06 µM in experiment [2].
In the same order, the values of `CN(C)CCNC(=O)c1ccc(-c2ccc(-c3ccc(Cl)cc3)n2-c2ccccc2C(F)(F)F)nc1` [Example 61, hydrochloride] are 0.06 µM, 0.02 µM and 0.005 µM.
In the same order, the values of `CN1CC[C@@H](NC(=O)c2ccc(-c3ccc(-c4ccc(Cl)cc4)n3-c3ccccc3C(F)(F)F)cc2)C1` [Example 70, hydrochloride] are 0.02 µM, 0.005 µM and 0.003 µM.
In the same order, the values of `CN(C)CCNC(=O)c1ccc(Cl)c(-c2ccc(-c3ccc(Br)cc3)n2-c2ccccc2C(F)(F)F)c1` [Example 15, hydrochloride] are 2.18 µM, 0.65 µM and 0.38 µM.
As for `CN(C)CCNC(=O)c1ccc(-c2ccc(-c3ccccc3)n2-c2ccccc2C(F)(F)F)cc1` [Example 26, hydrochloride], the GI50 in experiment [3] amounted to 0.12 µM; in experiment [1], 0.12 µM; in experiment [2], 0.07 µM.
Regarding `CN1CC[C@H](NC(=O)c2ccc(-c3ccc(-c4ccc(Cl)cc4)n3-c3ccccc3C(F)(F)F)cc2)C1` [Example 71, hydrochloride], the GI50 in experiment [3] was 0.02 µM; in experiment [1] it was 0.01 µM; in experiment [2], 0.005 µM.
For the compound `CN(C)CCCNC(=O)c1ccc(-c2ccc(-c3ccc(Cl)cc3)n2-c2ccccc2C(F)(F)F)cc1` [Example 58], the GI50 was 0.03 µM in experiment [3], 0.03 µM in experiment [1] and 0.02 µM in experiment [2].
For `CN(C)CCNC(=O)c1ccc(-c2ccc(-c3ccc(C#N)cc3)n2-c2ccccc2C(F)(F)F)cc1` [Example 57], the figures for the GI50 in experiment [3], in experiment [1] and in experiment [2] were 0.06 µM, 0.05 µM and 0.03 µM, respectively.
Consider `CN(C)CCNC(=O)Cc1ccc(-c2ccc(-c3ccc(Cl)cc3)n2-c2ccccc2C(F)(F)F)cc1` [Example 91, hydrochloride], for which the results for the GI50 in experiment [3], in experiment [1] and in experiment [2] were 0.01 µM, 0.01 µM and 0.005 µM, respectively.
On to `COc1ccc(-c2ccc(-c3ccc(Br)cc3)n2-c2ccccc2C(F)(F)F)cc1C(=O)NCCN(C)C` [Example 53, hydrochloride], for which the GI50 in experiment [3] came to 0.56 µM; in experiment [1] it was 0.34 µM; in experiment [2] it was 0.22 µM.
`CN1CCC(CNC(=O)c2cccc(-c3ccc(-c4ccc(Br)cc4)n3-c3ccccc3C(F)(F)F)c2)CC1` [Example 10] displayed a concentration for 50% growth inhibition (GI50) in experiment [3] of 0.34 µM. For the same compound, in experiment [4], the “% mitotic cells” value came out at 62% and the pEC50 was 6.11.

The values are drawn from patent US11208405B2, “Pyrrole derivatives as PLK1 inhibitors” (SENTINEL ONCOLOGY LIMITED, priority 2017, dated 2021).
